US20240180929A1, “TREATMENT OF INFECTIOUS DISEASES USING BCL-2 FAMILY PROTEIN INHIBITORS” (TEXAS BIOMEDICAL RESEARCH INSTITUTE, priority 2020, published 2024)

Columns and labels:
[1] = tested on: M.tb; experiment: CFU assay, M.tb-infected murine BMDMs; type: cell-based, Mycobacterium tuberculosis; conditions: 30 μM pan inhibitor, 4 days of treatment, MOI 1
[2] = tested on: M.tb; experiment: CFU assay, M.tb-infected murine lung macrophages; type: cell-based, Mycobacterium tuberculosis; conditions: 30 μM pan inhibitor, 2 days of treatment, MOI 1
[3] = tested on: M.tb-lux; type: cell-based, Mycobacterium tuberculosis
[4] = tested on: M.tb; experiment: CFU assay, M.tb-infected human in vitro TB granulomas; type: cell-based, Mycobacterium tuberculosis; conditions: 30 μM sabutoclax, 7 days
[5] = tested on: M.tb; type: in vivo, BALB/c mice; conditions: isoniazid positive control, vs placebo

CC(C)c1ccccc1Cc1cc(C(=O)Nc2ccc(S(=O)(=O)c3ccccc3C(C)(C)C)cc2)c(O)c(O)c1O [TW37]
M.tb CFUs normalized to DMSO control in BMDMs [1]: reduction in the number of M.tb CFUs
number of M.tb CFUs in lung macrophages [2]: reduction in the number of M.tb CFUs

Cc1c(-c2c(-c3ccc(F)o3)sc3ncnc(O[C@H](Cc4ccccc4OCc4ccnn4CC(F)(F)F)C(=O)O)c23)ccc(OCCN2CCN(C)CC2)c1Cl [S63845]
M.tb growth in human MDMs (luciferase) [3]: reduced M.tb growth in donor 1 after 4 days, but to a limited extent relative to the pan inhibitor Sabutoclax

Cc1cc2c(C(=O)NC[C@H](C)c3ccccc3)c(O)c(O)cc2c(O)c1-c1c(C)cc2c(C(=O)NC[C@H](C)c3ccccc3)c(O)c(O)cc2c1O [sabutoclax]
M.tb CFUs normalized to DMSO control in BMDMs [1]: reduction in the number of M.tb CFUs
number of M.tb CFUs in lung macrophages [2]: reduction in the number of M.tb CFUs
M.tb growth in human granulomas (CFU) [4]: significant reduction in M.tb growth

NNC(=O)c1ccncc1 [isoniazid]
M.tb growth in murine lungs (CFU) [5]: significantly reduced M.tb growth in murine lungs
M.tb growth in murine spleen (CFU) [5]: significantly reduced M.tb growth
acid fast stained M.tb in the mouse lung [5]: reduction in bacteria
lung inflammation (hematoxylin and eosin stain) [5]: reduced inflammation
